Experimental data: US8946282B2, “Indolin-2-one derivatives as protein kinase inhibitors” (Annji Pharmaceutical Co., Ltd., priority 2012, dated 2015)

Legend:
aurora B = aurora B (Homo sapiens, UniProt Q96GD4); test: radioisotope-based P81 filter-binding assay, aurora B kinase; type: biochemical; conditions: averaged from two independent dose-response curves; read-out: Enzyme assay IC50 Aur B
Procedure: (§1) Compounds of formula (I)-(IV) were evaluated for abilities in inhibiting protein kinases aurora B and FLT-3 activity using radioisotope-based P81 filter-binding assay (Table 1).

FLT-3 = molecular target: T1, FLT-3 (Homo sapiens, UniProt P36888); test: radioisotope-based P81 filter-binding assay, FLT-3 kinase; type: biochemical; conditions: averaged from two independent dose-response curves; read-out: Enzyme assay IC50 FLT-3
T1 sequence (P36888 27-993): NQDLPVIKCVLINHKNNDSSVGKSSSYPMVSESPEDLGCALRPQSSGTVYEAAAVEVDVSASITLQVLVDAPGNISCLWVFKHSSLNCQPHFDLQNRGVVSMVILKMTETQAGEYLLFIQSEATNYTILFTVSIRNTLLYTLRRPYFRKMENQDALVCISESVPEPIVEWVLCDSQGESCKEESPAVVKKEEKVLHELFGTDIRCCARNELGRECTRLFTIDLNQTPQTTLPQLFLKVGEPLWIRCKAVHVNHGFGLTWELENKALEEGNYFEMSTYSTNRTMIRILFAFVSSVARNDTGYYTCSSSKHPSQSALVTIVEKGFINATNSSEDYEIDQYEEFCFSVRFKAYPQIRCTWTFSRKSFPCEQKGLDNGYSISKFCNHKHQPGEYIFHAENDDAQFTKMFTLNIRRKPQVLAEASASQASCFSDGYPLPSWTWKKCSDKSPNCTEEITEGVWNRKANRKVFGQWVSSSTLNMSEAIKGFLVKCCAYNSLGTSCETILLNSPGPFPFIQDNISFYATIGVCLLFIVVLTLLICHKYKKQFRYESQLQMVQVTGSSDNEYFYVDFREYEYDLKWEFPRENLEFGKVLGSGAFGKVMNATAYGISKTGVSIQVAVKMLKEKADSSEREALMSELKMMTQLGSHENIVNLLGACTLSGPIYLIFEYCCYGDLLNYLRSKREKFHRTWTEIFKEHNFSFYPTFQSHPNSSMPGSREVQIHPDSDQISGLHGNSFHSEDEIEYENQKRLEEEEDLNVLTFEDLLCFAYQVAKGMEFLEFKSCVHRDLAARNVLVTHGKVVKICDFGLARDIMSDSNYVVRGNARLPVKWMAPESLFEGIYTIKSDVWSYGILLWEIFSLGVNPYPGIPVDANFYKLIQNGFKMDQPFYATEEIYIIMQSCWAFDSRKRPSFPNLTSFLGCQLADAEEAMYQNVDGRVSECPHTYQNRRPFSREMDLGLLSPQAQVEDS
Procedure: as §1

[1] = system: MV4-11 human acute myelomonocytic leukemia cells; test: anti-proliferation, SRB colorimetric assay, MV4-11; type: cell-based; conditions: concentration required for 50% growth inhibition
Procedure: HCT116 human colorectal carcinoma cells (Table 3), HepG2 human hepatocellular carcinoma cells (Table 4), and MV4-11 human acute myelomonocytic leukemia cells (Table 5). Cells were treated with the test compound and the concentration required for 50% growth inhibition (IC50) determined by sulfomodamine B (SRB) colorimetric assay.

aurora B, sequence (Q96GD4 whole entry): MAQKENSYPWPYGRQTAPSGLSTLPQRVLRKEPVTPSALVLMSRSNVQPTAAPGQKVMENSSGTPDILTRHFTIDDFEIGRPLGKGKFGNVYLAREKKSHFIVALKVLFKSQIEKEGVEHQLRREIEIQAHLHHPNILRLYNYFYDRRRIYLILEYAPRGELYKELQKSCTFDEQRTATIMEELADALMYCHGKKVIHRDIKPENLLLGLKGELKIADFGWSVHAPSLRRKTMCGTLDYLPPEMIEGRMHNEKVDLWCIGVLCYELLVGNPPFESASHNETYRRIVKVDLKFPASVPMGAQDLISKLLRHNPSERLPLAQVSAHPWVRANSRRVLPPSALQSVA

## O=C(NC(=O)c1ccc(Cl)c(C(F)(F)F)c1)Nc1ccc2c(c1)NC(=O)/C2=C\c1ccc[nH]1 [D28, (Z)—N-(3-((1H-pyrrol-2-yl)methylene)-2-oxoindolin-6-ylcarbamoyl)-4-chloro-3-(trifluoromethyl)benzamide]
other
  melting point: 280 to 285 °C (dec.)
Aurora B
  IC50: 15 nM
FLT-3
  IC50: 385 nM
[1]
  IC50: 0.79 nM

## O=C1Nc2cc(NC(=O)c3cccn(-c4ccccc4)c3=O)ccc2/C1=C/c1ccc[nH]1 [D105, (Z)—N-(3-((1H-pyrrol-2-yl)methylene)-2-oxoindolin-6-yl)-2-oxo-1-phenyl-1,2-dihydropyridine-3-carboxamide]
other
  melting point: > 300 °C
Aurora B
  IC50: 87.4 nM
FLT-3
  IC50: 48.4 nM
[1]
  IC50: 0.13 nM

## COc1ccc(-n2cccc(C(=O)Nc3ccc4c(c3)NC(=O)/C4=C\c3ccc[nH]3)c2=O)cc1 [D106, (Z)—N-(3-((1H-pyrrol-2-yl)methylene)-2-oxoindolin-6-yl)-1-(4-methoxyphenyl)-2-oxo-1,2-dihydropyridine-3-carboxamide]
other
  melting point: > 300 °C
Aurora B
  IC50: 209 nM
FLT-3
  IC50: > 1000 nM
[1]
  IC50: 12.6 nM

## O=C1Nc2cc(NC(=O)c3cccn(-c4ccc(Cl)cc4)c3=O)ccc2/C1=C/c1ccc[nH]1 [D108]
other
  melting point: > 300 °C
Aurora B
  IC50: > 1000 nM
FLT-3
  IC50: 26.3 nM
[1]
  IC50: 0.88 nM

## O=C1Nc2cc(NC(=O)c3cccn(-c4ccc(Cl)c(C(F)(F)F)c4)c3=O)ccc2/C1=C/c1ccc[nH]1 [D109, (Z)—N-(3-((1H-pyrrol-2-yl)methylene)-2-oxoindolin-6-yl)-1-(4-chloro-(3-trifluoromethyl)phenyl)-2-oxo-1,2-dihydropyridine-3-carboxamide]
Aurora B
  IC50: > 1000 nM
FLT-3
  IC50: 77.4 nM
[1]
  IC50: 7.19 nM

## Cc1ccc(-n2cccc(C(=O)Nc3ccc4c(c3)NC(=O)/C4=C\c3ccc[nH]3)c2=O)cc1 [D111, (Z)—N-(3-((1H-pyrrol-2-yl)methylene)-2-oxoindolin-6-yl)-2-oxo-1-p-tolyl-1,2-dihydropyridine-3-carboxamide]
other
  melting point: > 300 °C
Aurora B
  IC50: 209 nM
FLT-3
  IC50: 37.5 nM
[1]
  IC50: 3.42 nM

## O=C1Nc2cc(NC(=O)c3cccn(-c4ccc(C(F)(F)F)cc4)c3=O)ccc2/C1=C/c1ccc[nH]1 [D112]
other
  melting point: > 300 °C
Aurora B
  IC50: > 1000 nM
FLT-3
  IC50: 137 nM
[1]
  IC50: 2.09 nM

## O=C1Nc2cc(NC(=O)c3cccn(-c4cccc(C(F)(F)F)c4)c3=O)ccc2/C1=C/c1ccc[nH]1 [D113]
other
  melting point: > 300 °C
Aurora B
  IC50: 689 nM
FLT-3
  IC50: 134 nM
[1]
  IC50: 2.78 nM

## O=C1Nc2cc(NC(=O)c3cccn(-c4cccc(Cl)c4)c3=O)ccc2/C1=C/c1ccc[nH]1 [D114]
other
  melting point: > 300 °C
Aurora B
  IC50: 251 nM
FLT-3
  IC50: 91.2 nM
[1]
  IC50: 1.55 nM

## O=C1Nc2cc(NC(=O)c3cccn(-c4ccccc4F)c3=O)ccc2/C1=C/c1ccc[nH]1 [D115]
other
  melting point: > 300 °C
Aurora B
  IC50: 138 nM
FLT-3
  IC50: 535 nM
[1]
  IC50: 6.69 nM

## Cc1cc(C)c(/C=C2\C(=O)Nc3cc(NC(=O)c4cccn(-c5ccc(F)cc5)c4=O)ccc32)[nH]1 [D119, (Z)—N-(3-((3,5-dimethyl-1H-pyrrol-2-yl)methylene)-2-oxoindolin-6-yl)-1-(4-fluorophenyl)-2-oxo-1,2-dihydropyridine-3-carboxamide]
other
  melting point: > 300 °C
Aurora B
  IC50: > 1000 nM
FLT-3
  IC50: 8.1 nM
[1]
  IC50: 1.39 nM

## Cc1[nH]c(/C=C2\C(=O)Nc3cc(NC(=O)c4cccn(-c5ccc(F)cc5)c4=O)ccc32)c(C)c1C(=O)O [D120, (Z)-5-((6-(1-(4-fluorophenyl)-2-oxo-1,2-dihydropyridine-3-carboxamido)-2-oxoindolin-3-ylidene)methyl)-2,4-dimethyl-1H-pyrrole-3-carboxylic acid]
other
  melting point: > 300 °C
Aurora B
  IC50: 10.7 nM
FLT-3
  IC50: 8.1 nM
[1]
  IC50: 0.23 nM

## Cc1[nH]c(/C=C2\C(=O)Nc3cc(NC(=O)c4cccn(-c5ccc(F)cc5)c4=O)ccc32)c(C)c1CC(=O)O [D121, (Z)-2-(5-((6-(1-(4-fluorophenyl)-2-oxo-1,2-dihydropyridine-3-carboxamido)-2-oxoindolin-3-ylidene)methyl)-2,4-dimethyl-1H-pyrrol-3-yl)acetic acid]
other
  melting point: 275 °C (dec.)
Aurora B
  IC50: 5 nM
FLT-3
  IC50: 7.3 nM
[1]
  IC50: 3.03 nM

## Cc1[nH]c(/C=C2\C(=O)Nc3cc(NC(=O)c4cccn(-c5ccc(F)cc5)c4=O)ccc32)c(C)c1CCC(=O)O [D122]
other
  melting point: > 300 °C
Aurora B
  IC50: 5.5 nM
FLT-3
  IC50: 3.5 nM
[1]
  IC50: 15.8 nM

## COC(=O)CCc1c(C)[nH]c(/C=C2\C(=O)Nc3cc(NC(=O)c4cccn(-c5ccc(F)cc5)c4=O)ccc32)c1C [D123, (Z)-methyl-3-(5-((6-(1-(4-fluorophenyl)-2-oxo-1,2-dihydropyridine-3-carboxamido)-2-oxoindolin-3-ylidene)methyl)-2,4-dimethyl-1H-pyrrol-3-yl)propanoate]
other
  melting point: 266 to 270 °C
Aurora B
  IC50: 238 nM
FLT-3
  IC50: 45.2 nM
[1]
  IC50: 1.56 nM

## O=C1Nc2cc(NC(=O)c3c[nH]cc(-c4ccc(F)cc4)c3=O)c(F)cc2/C1=C/c1ccc[nH]1 [D137, (Z)—N-(3-((1H-pyrrol-2-yl)methylene)-5-fluoro-2-oxoindolin-6-yl)-5-(4-fluorophenyl)-4-oxo-1,4-dihydropyridine-3-carboxamide]
other
  melting point: > 300 °C
Aurora B
  IC50: 237 nM
FLT-3
  IC50: 37.9 nM
[1]
  IC50: 0.97 nM

## Cn1cc(C(=O)Nc2ccc3c(c2)NC(=O)/C3=C\c2ccc[nH]2)c(=O)c(-c2ccc(F)cc2)c1 [D138, (Z)—N-(3-((1H-pyrrol-2-yl)methylene)-2-oxoindolin-6-yl)-5-(4-fluorophenyl)-1-methyl-4-oxo-1,4-dihydropyridine-3-carboxamide]
Aurora B
  IC50: 94.6 nM
FLT-3
  IC50: > 1000 nM
[1]
  IC50: 17.8 nM

## Cc1[nH]c(/C=C2\C(=O)Nc3cc(NC(=O)c4c[nH]cc(-c5ccc(F)cc5)c4=O)ccc32)c(C)c1C(=O)O [D141, (Z)-5-((6-(5-(4-fluorophenyl)-4-oxo-1,4-dihydropyridine-3-carboxamido)-2-oxoindolin-3-ylidene)methyl)-2,4-dimethyl-1H-pyrrole-3-carboxylic acid]
other
  melting point: 283 °C
Aurora B
  IC50: 3.5 nM
FLT-3
  IC50: 2.9 nM
[1]
  IC50: 0.81 nM

## COc1ccc(-c2c[nH]cc(C(=O)Nc3ccc4c(c3)NC(=O)/C4=C\c3[nH]c(C)c(C(=O)O)c3C)c2=O)cc1 [D142, (Z)-5-((6-(5-(4-methoxyphenyl)-4-oxo-1,4-dihydropyridine-3-carboxamido)-2-oxoindolin-3-ylidene)methyl)-2,4-dimethyl-1H-pyrrole-3-carboxylic acid]
Aurora B
  IC50: 4.5 nM
FLT-3
  IC50: 24.6 nM
[1]
  IC50: 6.69 nM

## Cc1[nH]c(/C=C2\C(=O)Nc3cc(NC(=O)c4c[nH]cc(-c5ccc(F)cc5)c4=O)ccc32)c(C)c1CC(=O)O [D144, (Z)-2-(5-((6-(5-(4-fluorophenyl)-4-oxo-1,4-dihydropyridine-3-carboxamido)-2-oxoindolin-3-ylidene)methyl)-2,4-dimethyl-1H-pyrrol-3-yl)acetic acid]
other
  melting point: > 300 °C
Aurora B
  IC50: 2.3 nM
FLT-3
  IC50: 1.3 nM
[1]
  IC50: 22.8 nM

## Cc1[nH]c(/C=C2\C(=O)Nc3cc(NC(=O)c4c[nH]cc(-c5ccc(F)cc5)c4=O)ccc32)c(C)c1CCC(=O)O [D145, (Z)-3-(5-((6-(5-(4-fluorophenyl)-4-oxo-1,4-dihydropyridine-3-carboxamido)-2-oxoindolin-3-ylidene)methyl)-2,4-dimethyl-1H-pyrrol-3-yl)propanoic acid]
other
  melting point: > 300 °C
Aurora B
  IC50: 3.4 nM
FLT-3
  IC50: 1.6 nM
[1]
  IC50: 9.45 nM

## COc1ccc(-c2c[nH]cc(C(=O)Nc3ccc4c(c3)NC(=O)/C4=C\c3[nH]c(C)c(C(=O)N4CCOCC4)c3C)c2=O)cc1 [D155, (Z)—N-(3-((3,5-dimethyl-4-(morpholine-4-carbonyl)-1H-pyrrol-2-yl)methylene)-2-oxoindolin-6-yl)-5-(4-methoxyphenyl)-4-oxo-1,4-dihydropyridine-3-carboxamide]
other
  melting point: 205 °C (dec.)
Aurora B
  IC50: 42.8 nM
FLT-3
  IC50: 34.9 nM
[1]
  IC50: 1.96 nM
